Laboratory results: US20250325500A1, “USE OF 5-METHOXY-2-AMINOINDAN ("MEAI") IN METHODS FOR TREATING COCAINE ADDICTION” (Clearmind Medicine Inc., priority 2022, published 2025)

Assays:
Format in all cases: in vivo, rat
[1] = test system: cocaine preference in rats; experiment: CPP test, MEAI as a treatment for cocaine preference in rats; settings: rats conditioned with cocaine 15 mg/kg
Experimental: (§1) Two groups were tested: One group received MEAI (four different doses), while the second group received cocaine in each conditioning day. Additionally, some rats that received cocaine were treated with MEAI on the test day to determine if MEAI has a treatment-like effect.
In the CPP assay, the rats learned to associate a reward with an environmental cue. Two groups of rats were put through a three-day baseline period during which each rat was allowed to freely move during 20 minutes from a striped to a smooth compartment in a closed arena. Time measurements were taken to determine which compartment the rat spent more time in (i.e., preferred). Baseline data was determined as an average duration of time spent in each compartment. After the baseline period, a training period of 5 days was conducted in which rats were injected with saline (I.P.) in the morning and placed in the preferred compartment for 20 minutes. […] The duration time spent in each compartment was calculated as the difference between the baseline time and the testing time (seconds) as previously described. […]
The two groups were divided as values below 100 seconds in a non-preferred compartment (MEAI A) and above 100 seconds (MEAI B). […] The behavioral data were analyzed with Ordinary one-way ANOVA. Data was expressed as mean±SEM and a probability value of […] was considered significant. n=5-12 rats per group. […]

rats [2] = experiment: Side effects observed in rats dosed with MEAI during CPP conditioning; settings: anxiety, diarrhea, secretion of vaginal plug
Experimental: (§2) In the CPP assay, the rats learned to associate a reward with an environmental cue. Two groups of rats were put through a three-day baseline period during which each rat was allowed to freely move during 20 minutes from a striped to a smooth compartment in a closed arena. Time measurements were taken to determine which compartment the rat spent more time in (i.e., preferred). Baseline data was determined as an average duration of time spent in each compartment. After the baseline period, a training period of 5 days was conducted in which rats were injected with saline (I.P.) in the morning and placed in the preferred compartment for 20 minutes. Four hours after the saline injection, cocaine (15 mg/kg I.P.) or MEAI (4 doses; 20, 10, 5 and 2.5 mg/kg I.P.) was injected and the rat was placed in the less preferred compartment for 20 minutes. On the 6th day, a CPP test was conducted (identical to the baseline period) to determine if MEAI imparts a reward-like effect similar to cocaine. The duration time spent in each compartment was calculated as the difference between the baseline time and the testing time (seconds) as previously described.
We started testing with 20 mg/kg of MEAI. […] Due to these side effects, we decided to test lower doses of MEAI as opposed to higher doses. Accordingly, the following dose tested was 10 mg/kg of MEAI. 51% of the rats receiving this dose had side effects, including anxiety, aggressiveness, piloerection, tremors low body posture, diarrhea, and secretion of “vaginal plug,” with a trend towards improved symptoms, although not statistically significant, compared to the 20 mg/kg dose. […] Overall, the mean that was most negative was for the dose 5 mg/kg, and therefore we decided to test the efficacy of this dose as a treatment for cocaine preference in rats.

rats [3] = experiment: Conditioned Place Preference (CPP) model, reward-like effect of MEAI; settings: 5 conditioning days, test on 6th day, difference from baseline
Experimental: as §1, §2
In the first part of this study, we examined whether administration of MEAI in four different doses […] reward.

COc1ccc2c(c1)CC(N)C2 (stereo not shown) [MEAI, 5-methoxy-2-aminoindan]
decrease of reward in cocaine-conditioned rats, 5 mg/kg versus 10 mg/kg ([1]; MEAI 5 mg/kg i.p. compared with 10 mg/kg i.p. on test day (FIG. 2)): better results in decreasing reward | compartment preference of cocaine-conditioned rats after treatment ([1]; MEAI 5 mg/kg i.p. on test day, 10 min before test): mixed | rats presenting side effects (rats [2]; MEAI 2.5 mg/kg I.P.): 21.4% | rats presenting side effects (rats [2]; MEAI 5 mg/kg I.P.): 20.2% | rats presenting side effects (rats [2]; MEAI 10 mg/kg I.P., aggressiveness, piloerection, tremors, low body posture): 51% | rats presenting side effects (rats [2]; MEAI 20 mg/kg I.P., aggressiveness, piloerection, tremors, low body posture): 65.7% | duration of time spent in a non-preferred place (reward) (rats [3]; MEAI 2.5 mg/kg I.P.): negative | duration of time spent in a non-preferred place (reward) (rats [3]; MEAI 5 mg/kg I.P.): negative | duration of time spent in a non-preferred place (reward) (rats [3]; MEAI 10 mg/kg I.P.): rewarding effect | duration of time spent in a non-preferred place (reward) (rats [3]; MEAI 20 mg/kg I.P.): low reward
